Drawing on US9273067B2, “Pyrazolopyrimidine macrocycles as inhibitors of human immunodeficiency virus replication” (BRISTOL-MYERS SQUIBB COMPANY, priority 2014, dated 2016), this text covers EC50 for 20 molecules.

The subject of the assay is NL-RLuc virus (recombinant HIV NL4-3 with Renilla Luciferase) in MT-2 cells. The experiment in a line: Inhibition of HIV replication (NL-RLuc virus in MT-2 cells, luciferase readout). Format: cell-based, human immunodeficiency virus (HIV). The text has this: Inhibition of HIV Replication:
A recombinant NL-RLuc proviral clone was constructed in which a section of the nef gene from NL4-3 was replaced with the Renilla Luciferase gene. This virus is fully infectious and can undergo multiple cycles of replication in cell culture. In addition, the luciferous reporter provides a simple and easy method for quantitating the extent of virus growth and consequently, the antiviral activity of test compounds. The plasmid pNLRLuc contains the proviral NL-Rluc DNA cloned into pUC 18 at the PvuII site. The NL-RLuc virus was prepared by transfection of 293T cells with the plasmid pNLRLuc. Transfections were performed using the LipofectAMINE PLUS kit from Invitrogen (Carlsbad, Calif.) according to the manufacturer and the virus generated was titered in MT-2 cells. For susceptibility analyses, the titrated virus was used to infect MT-2 cells in the presence of compound, and after 5 days of incubation, cells were processed and quantitated for virus growth by the amount of expressed luciferase. Assay media was RPMI 1640 supplemented with 10% heat inactivated fetal bovine serum (FBS), 100 units/ml penicillin G/100 units/ml streptomycin, 10 mM HEPES buffer pH 7.55 and 2 mM L-glutamine. The results from at least 2 experiments were used to calculate the EC50 values. Luciferase was quantitated using the Dual Luciferase kit from Promega (Madison, Wis.). Susceptibility of viruses to compounds was determined by incubation in the presence of serial dilutions of the compound. The 50% effective concentration (EC50) was calculated by using the exponential form of the median effect equation where (Fa)=1/[1+(ED50/drug conc.)^m] (Johnson V A, Byington R T. Infectivity Assay. In Techniques in HIV Research. ed. Aldovini A, Walker B D. 71-76. New York: Stockton Press. 1990).

The mark [1] stands for this setting: MT2, 120 h, NL-RLuc virus infecting MT-2 cells, 5 days of incubation, 10% FBS, luciferase quantitation, at least 2 experiments.
The mark [2] stands for this setting: NL-RLuc virus infecting MT-2 cells, 5 days of incubation, 10% FBS, luciferase quantitation, at least 2 experiments, read-out: EC50.

Each structure is given as a SMILES string. Like-named read-outs stand apart in the source and are kept apart here.

Broadly, the EC50 is the concentration that produces a half-maximal response. `Cc1nc2cc3nn2c(c1[C@H](OC(C)(C)C)C(=O)O)N1CCC(C)(CC1)OCCCCc1ccccc1C(=O)NC3` [Example 15, (2S)-2-(tert-Butoxy)-2-{4,24-dimethyl-12-oxo-23-oxa-1,5,7,8,11-pentaazapentacyclo[22.2.2.1^6,^9.0^2,^7.0^13,^18]nonacosa-2,4,6(29),8,13(18),14,16-heptaen-3-yl}acetic acid]: the EC50 under setting [1] is 120 nM. As for `Cc1nc2cc3nn2c(c1[C@H](OC(C)(C)C)C(=O)O)N1CCC(C)(CC1)OC=CCCOC(C)(C)c1cn(nn1)C3` [Example 3, (2S)-2-(tert-Butoxy)-2-[4,15,15,22-tetramethyl-16,21-dioxa-1,5,7,8,11,12,13-heptaazapentacyclo[20.2.2.1^6,^9.1^11,^14.0^2,^7]octacosa-2,4,6(28),8,12,14(27),19-heptaen-3-yl]acetic acid], the EC50 under setting [2] was 253 nM. Consider `Cc1nc2cc3nn2c(c1[C@H](OC(C)(C)C)C(=O)O)N1CCC(C)(CC1)OCC=Cc1cc(C(F)(F)F)ccc1COC3` [Example 26, (2S)-2-(tert-Butoxy)-2-[4,23-dimethyl-16-(trifluoromethyl)-11,22-dioxa-1,5,7,8-tetraazapentacyclo[21.2.2.1^6,^9.0^2,^7.0^13,^18]octacosa-2,4,6(28),8,13(18),14,16,19-octaen-3-yl]acetic acid], for which the EC50 under setting [1] turned out to be 32 nM. Still for that read-out and setting: the same measure for `Cc1nc2cc3nn2c(c1[C@H](OC(C)(C)C)C(=O)O)N1CCC(C)(CC1)OCCCCCc1cc(F)ccc1COC3` [Example 60, (2S)-2-(tert-Butoxy)-2-{16-fluoro-4,25-dimethyl-1,24-dioxa-1,5,7,8-tetraazapentacyclo[23.2.2.1^6,^9.0^2,^7.0^13,^18]triaconta-2,4,6(30),8,13(18),14,16-heptaen-3-yl}acetic acid]: 13 nM; for `Cc1nc2cc3nn2c(c1[C@H](OC(C)(C)C)C(=O)O)N1CCC(C)(CC1)OCCCC[C@H](C)Oc1cc(Cl)ccc1COC3` [Example 35, (2S)-2-(tert-Butoxy)-2-[(20S)-16-chloro-4,20,26-trimethyl-11,19,25-trioxa-1,5,7,8-tetraazapentacyclo[24.2.2.1^6,^9.0^2,^7.0^13,^18]hentriaconta-2,4,6(31),8,13,15,17-heptaen-3-yl]acetic acid]: 2 nM.

On to `Cc1nc2cc3nn2c(c1[C@H](OC(C)(C)C)C(=O)O)N1CCC(C)(CC1)OC=CCCOC1(CCCCC1)c1cn(nn1)C3` [Example 7, (2S)-2-(tert-Butoxy)-2-[4′,22′-dimethyl-16′,21′-dioxa-1′,5′,7′,8′ 11′,12′,13′-heptaazaspiro[cyclohexane-1,15′-pentacyclo[20.2.2.1^6,^9.1^11,^14.0^2,^7]octacosane]-2′,4′,6′(28′),8′,12′,14′(27′),19′-heptaen-3′-yl]acetic acid], for which the EC50 under setting [2] is 134 nM.

In the case of `Cc1nc2cc3nn2c(c1[C@H](OC(C)(C)C)C(=O)O)N1CCC(C)(CC1)OCCCc1ccccc1CCC3` [Example 25, (2S)-2-(tert-Butoxy)-2-{4,23-dimethyl-22-oxa-1,5,7,8-tetraazapentacyclo[21.2.2.1^6,^9.0^2,^7.0^13,^18]octacosa-2,4,6(28),8,13(18),14,16-heptaen-3-yl}acetic acid], the EC50 under setting [1] was found to be 31 nM. The same measure, in the same setting: the result for `Cc1nc2cc3nn2c(c1[C@H](OC(C)(C)C)C(=O)O)N1CCC(C)(CC1)OCCCC[C@H](C)Oc1ccc(F)cc1COC3` [Example 28, (2S)-2-(tert-Butoxy)-2-[(20S)-15-fluoro-4,20,26-trimethyl-11,19,25-trioxa-1,5,7,8-tetraazapentacyclo[24.2.2.1^6,^9.0^2,^7.0^13,^18]hentriaconta-2,4,6(31),8,13,15,17-heptaen-3-yl]acetic acid] reads 5 nM; that for `Cc1ccc2c(c1)CCCCOC1(C)CCN(CC1)c1c([C@H](OC(C)(C)C)C(=O)O)c(C)nc3cc(nn13)COC2` [Example 65, (2S)-2-(tert-Butoxy)-2-{4,16,24-trimethyl-11,23-dioxa-1,5,7,8-tetraazapentacyclo[22.2.2.1^6,^9.0^2,^7.0^13,^18]nonacosa-2,4,6(29),8,13(18),14,16-heptaen-3-yl}acetic acid], 2 nM. Take `Cc1ccc2c(c1)O[C@@H](C)CCCCOC1(C)CCN(CC1)c1c([C@H](OC(C)(C)C)C(=O)O)c(C)nc3cc(nn13)CO[C@H]2C` (single isomer, unassigned) [Example 55]: the EC50 under setting [1] came to 7 nM.

`Cc1nc2cc3nn2c(c1[C@H](OC(C)(C)C)C(=O)O)N1CCC(C)(CC1)OCCCCC(C(F)(F)F)Oc1cc(F)ccc1COC3` (stereo partly drawn) [Example 54, (2S)-2-(tert-butoxy)-2-[16-fluoro-4,26-dimethyl-20-(trifluoromethyl)-11,19,25-trioxa-1,5,7,8-tetraazapentacyclo[24.2.2.1^6,^9.0^2,^7.0^13,^18]hentriaconta-2,4,6(31),8,13,15,17-heptaen-3-yl]acetic acid]: the EC50 under setting [1] amounted to 7 nM. `Cc1cc(CN2CC=CCOC3(C)CCN(CC3)c3c([C@H](OC(C)(C)C)C(=O)O)c(C)nc4cc(nn34)CNC(=O)C2=O)ccc1F` [Example 18, (2S)-2-(tert-Butoxy)-2-[14-[(4-fluoro-3-methylphenyl)methyl]-4,20-dimethyl-12,13-dioxo-19-oxa-1,5,7,8,11,14-hexaazatetracyclo[18.2.2.1^6,^9.0^2,^7]pentacosa-2,4,6(25),8,16-pentaen-3-yl]acetic acid]: the EC50 under setting [1] was determined as 122 nM. For `Cc1nc2cc3nn2c(c1[C@H](OC(C)(C)C)C(=O)O)N1CCC(C)(CC1)OCCCCc1cc(F)ccc1COC3` [Example 66, (2S)-2-(tert-Butoxy)-2-{16-fluoro-4,24-dimethyl-11,23-dioxa-1,5,7,8-tetraazapentacyclo[22.2.2.1^6,^9.0^2,^7.0^13,^18]nonacosa-2,4,6(29),8,13(18),14,16-heptaen-3-yl}acetic acid], the EC50 under setting [1] stood at 4 nM.

In the case of `Cc1nc2cc3nn2c(c1[C@H](OC(C)(C)C)C(=O)O)N1CCC(C)(CC1)OCCCC[C@H](C)Oc1cc(F)c(F)cc1CCC3` [Example 43, (2S)-2-(tert-Butoxy)-2-[(20S)-15,16-difluoro-4,20,26-trimethyl-19,25-dioxa-1,5,7,8-tetraazapentacyclo[24.2.2.1^6,^9.0^2,^7.0^13,^18]hentriaconta-2,4,6(31),8,13(18),14,16-heptaen-3-yl]acetic acid], the EC50 under setting [1] was 1 nM.

Consider `Cc1nc2cc3nn2c(c1[C@H](OC(C)(C)C)C(=O)O)N1CCC(C)(CC1)OCCCC[C@H](C)Oc1cc(F)ccc1CCC3` [Example 39, (2S)-2-(tert-Butoxy)-2-[(20S)-16-fluoro-4,20,26-trimethyl-19,25-dioxa-1,5,7,8-tetraazapentacyclo[24.2.2.1^6,^9.0^2,^7.0^13,^18]hentriaconta-2,4,6(31),8,13(18),14,16-heptaen-3-yl]acetic acid], for which, under setting [1], the EC50 turned out to be 5 nM. Regarding `Cc1nc2cc3nn2c(c1[C@H](OC(C)(C)C)C(=O)O)N1CCC(C)(CC1)OCCCCCc1ccccc1COC3` [Example 57, (2S)-2-(tert-Butoxy)-2-{4,25-dimethyl-11,24-dioxa-1,5,7,8-tetraazapentacyclo[23.2.2.1^6,^9.0^2,^7.0^13,^18]triaconta-2,4,6(30),8,13(18),14,16-heptaen-3-yl}acetic acid], under setting [1], the EC50 amounted to 34 nM.

Regarding `Cc1nc2cc3nn2c(c1[C@H](OC(C)(C)C)C(=O)O)N1CCC(C)(CC1)OCCCCC(c1ccccc1)Oc1ccc(F)cc1COC3` (stereo partly drawn) [Example 52, (2S)-2-(tert-butoxy)-2-{15-fluoro-4,26-dimethyl-20-phenyl-11,19,25-trioxa-1,5,7,8-tetraazapentacyclo[24.2.2.1^6,^9.0^2,^7.0^13,^18]hentriaconta-2,4,6(31),8,13(18),14,16-heptaen-3-yl}acetic acid], the EC50 ({}) turned out to be 60 nM. On to `CCCC1CCCCOC2(C)CCN(CC2)c2c([C@H](OC(C)(C)C)C(=O)O)c(C)nc3cc(nn23)COCc2ccc(C)cc2O1` (stereo partly drawn) [Example 44, (2S)-2-(tert-Butoxy)-2-{4,16,26-trimethyl-20-propyl-11,19,25-trioxa-1,5,7,8-tetraazapentacyclo[24.2.2.1^6,^9.0^2,^7.0^13,^18]hentriaconta-2,4,6(31),8,13(18),14,16-heptaen-3-yl}acetic acid], for which, for the setting “{}”, the EC50 turned out to be 5 nM.

Turning to `Cc1nc2cc3nn2c(c1[C@H](OC(C)(C)C)C(=O)O)N1CCC(C)(CC1)OCCCCOc1ccccc1CC(=O)NC3` [Example 17, (2S)-2-(tert-Butoxy)-2-{4,26-dimethyl-12-oxo-20,25-dioxa-1,5,7,8,11-pentaazapentacyclo[24.2.2.1^6,^9.1^2,^7.0^14,^19]hentriaconta-2,4,6(31),8,14(19),15,17-heptaen-3-yl}acetic acid], the EC50 under setting [1] came to 24 nM. Still for that read-out and setting: the same measure for `Cc1nc2cc3nn2c(c1[C@H](OC(C)(C)C)C(=O)O)N1CCC(C)(CC1)OCCCC[C@H](C)Oc1cc(F)cc(F)c1COC3` [Example 32, (2S)-2-(tert-Butoxy)-2-[(20S)-14,16-difluoro-4,20,26-trimethyl-11,19,25-trioxa-1,5,7,8-tetraazapentacyclo[24.2.2.1^6,^9.0^2,^7.0^13,^18]hentriaconta-2,4,6(31),8,13,15,17-heptaen-3-yl]acetic acid]: 3 nM.
